From patent publication US9951063B2, “8-(piperazin-1-yl)-1,2,3,4-tetrahydro-isoquinoline derivatives” (IDORSIA PHARMACEUTICALS LTD, priority 2014, dated 2018)

Target: human CXCR3A (Homo sapiens (Human), UniProt P49682)
Assay: FLIPR assay (inhibition of CXCL10-induced calcium signal)
Assay type: cell-based
Details: engineered CHO-K1 cells expressing human CXCR3A coupled to Galpha(16); Fluo-4-AM; CXCL10 agonist 20 nM; mean values where determined several times
In short: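 CHO-K1 cells expressing human CXCR3A coupled to Gα16 were loaded with Fluo-4-AM for 1 h in HBSS/20 mM Hepes pH 7.4 with probenecid. Compound was added, then CXCL10 (20 nM as dispensed). Baseline-subtracted peak fluorescence gave inhibition curves and IC50, averaged over repeats.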

Sequence of human CXCR3A (P49682 whole entry): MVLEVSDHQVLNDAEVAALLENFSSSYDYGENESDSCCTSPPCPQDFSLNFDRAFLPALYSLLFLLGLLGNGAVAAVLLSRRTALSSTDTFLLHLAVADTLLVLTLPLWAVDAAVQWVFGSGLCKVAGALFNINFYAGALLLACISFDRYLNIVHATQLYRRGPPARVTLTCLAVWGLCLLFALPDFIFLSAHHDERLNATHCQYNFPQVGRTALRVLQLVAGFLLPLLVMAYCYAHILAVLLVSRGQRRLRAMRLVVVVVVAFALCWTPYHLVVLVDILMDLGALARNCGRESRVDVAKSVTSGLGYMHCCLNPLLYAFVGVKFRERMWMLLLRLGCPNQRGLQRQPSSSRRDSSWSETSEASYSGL

Question: `C[C@@H]1CN(c2cccc3c2CN(C(=O)[C@@H]2CCCc4ccccc42)CC3)CCN1C(=O)Cn1cnc2cccnc21` [Example 71, 2-Imidazo[4,5-b]pyridin-3-yl-1-{(R)-2-methyl-4-[2-((R)-1,2,3,4-tetrahydro-naphthalene-1-carbonyl)-1,2,3,4-tetrahydro-isoquinolin-8-yl]-piperazin-1-yl}-ethanone] was tested. Which IC50 did it give?
Answer: Its IC50 is 80.2 nM.

Question: With `C[C@@H]1CN(c2cccc3c2CN(C(=O)c2ccccc2)CC3)CCN1C(=O)Cn1cnc2cccnc21` [Example 72, 1-[(R)-4-(2-Benzoyl-1,2,3,4-tetrahydro-isoquinolin-8-yl)-2-methyl-piperazin-1-yl]-2-imidazo[4,5-b]pyridin-3-yl-ethanone] as the compound, how does the IC50 read?
Answer: Its IC50 is 92.2 nM.

Question: Which IC50 does the source give for `Cc1ccc(C(=O)N2CCc3cccc(N4CCN(C(=O)Cn5cnc6cccnc65)[C@H](C)C4)c3C2)cc1` [Example 73, 2-Imidazo[4,5-b]pyridin-3-yl-1-{(R)-2-methyl-4-[2-(4-methyl-benzoyl)-1,2,3,4-tetrahydro-isoquinolin-8-yl]-piperazin-1-yl}-ethanone] here?
Answer: Its IC50 is 111 nM.

Question: `C[C@@H]1CN(c2cccc3c2CN(C(=O)c2ccc(Cl)cc2)CC3)CCN1C(=O)Cn1cnc2cccnc21` [Example 74, 1-{(R)-4-[2-(4-Chloro-benzoyl)-1,2,3,4-tetrahydro-isoquinolin-8-yl]-2-methyl-piperazin-1-yl}-2-imidazo[4,5-b]pyridin-3-yl-ethanone] was tested. Which IC50 did it give?
Answer: The IC50 was 46.6 nM.

Question: `C[C@@H]1CN(c2cccc3c2CN(C(=O)c2ccc(Cl)c(Cl)c2)CC3)CCN1C(=O)Cn1cnc2cccnc21` [Example 75, 1-{(R)-4-[2-(3,4-Dichloro-benzoyl)-1,2,3,4-tetrahydro-isoquinolin-8-yl]-2-methyl-piperazin-1-yl}-2-imidazo[4,5-b]pyridin-3-yl-ethanone] was tested. Which IC50 did it give?
Answer: The IC50 was 17 nM.

Question: For `C[C@@H]1CN(c2cccc3c2CN(C(=O)c2cccc(N(C)C)c2)CC3)CCN1C(=O)Cn1cnc2cccnc21` [Example 76, 1-{(R)-4-[2-(3-Dimethylamino-benzoyl)-1,2,3,4-tetrahydro-isoquinolin-8-yl]-2-methyl-piperazin-1-yl}-2-imidazo[4,5-b]pyridin-3-yl-ethanone], which IC50 is on record?
Answer: The IC50 was 82.4 nM.

Question: Which IC50 does the source give for `C[C@@H]1CN(c2cccc3c2CN(C(=O)c2ccc(C(F)(F)F)cc2)CC3)CCN1C(=O)Cn1cnc2cccnc21` [Example 77, 2-Imidazo[4,5-b]pyridin-3-yl-1-{(R)-2-methyl-4-[2-(4-trifluoromethyl-benzoyl)-1,2,3,4-tetrahydro-isoquinolin-8-yl]-piperazin-1-yl}-ethanone] here?
Answer: The IC50 was 92.3 nM.

Question: Which IC50 does the source give for `C[C@@H]1CN(c2cccc3c2CN(C(=O)Cc2ccccc2)CC3)CCN1C(=O)Cn1cnc2cccnc21` [Example 78, 2-Imidazo[4,5-b]pyridin-3-yl-1-[(R)-2-methyl-4-(2-phenylacetyl-1,2,3,4-tetrahydro-isoquinolin-8-yl)-piperazin-1-yl]-ethanone] here?
Answer: The IC50 was 216 nM.

Question: Which IC50 does the source give for `C[C@@H]1CN(c2cccc3c2CN(C(=O)[C@H](C)c2ccccc2)CC3)CCN1C(=O)Cn1cnc2cccnc21` [Example 79, (R)-1-{8-[(R)-4-(2-Imidazo[4,5-b]pyridin-3-yl-acetyl)-3-methyl-piperazin-1-yl]-3,4-dihydro-1H-isoquinolin-2-yl}-2-phenyl-propan-1-one] here?
Answer: Its IC50 is 570 nM.

Question: How did the IC50 turn out when `C[C@@H]1CN(c2cccc3c2CN(C(=O)C2(c4ccccc4)CC2)CC3)CCN1C(=O)Cn1cnc2cccnc21` [Example 80, 2-Imidazo[4,5-b]pyridin-3-yl-1-{(R)-2-methyl-4-[2-(1-phenyl-cyclopropanecarbonyl)-1,2,3,4-tetrahydro-isoquinolin-8-yl]-piperazin-1-yl}-ethanone] was run?
Answer: The IC50 was 199 nM.

Question: Which IC50 does the source give for `C[C@@H]1CN(c2cccc3c2CN(C(=O)COc2ccccc2)CC3)CCN1C(=O)Cn1cnc2cccnc21` [Example 81, 2-Imidazo[4,5-b]pyridin-3-yl-1-{(R)-2-methyl-4-[2-(2-phenoxy-acetyl)-1,2,3,4-tetrahydro-isoquinolin-8-yl]-piperazin-1-yl}-ethanone] here?
Answer: Its IC50 is 65.1 nM.
